Experimental data from US20220339179A1, “TREATMENT OF HR DEFICIENT CANCER” (THE FRANCIS CRICK INSTITUTE LIMITED, priority 2019, published 2022).

How the values were obtained:
recombinant human DNPH1 = biological target: T1, recombinant human DNPH1 (Homo sapiens, UniProt O43598); assay: DNPH1 in vitro activity assay (RP-HPLC); type: biochemical; settings: for DNPH1 activity towards nucleoside monophosphate substrates: DNPH1 4 μM, substrate 1 mM, 45 min, RP-HPLC
T1 construct: His6 (N); made in house; host or cells: E. coli BL21 (pET28a)
T1 sequence (O43598 1-174): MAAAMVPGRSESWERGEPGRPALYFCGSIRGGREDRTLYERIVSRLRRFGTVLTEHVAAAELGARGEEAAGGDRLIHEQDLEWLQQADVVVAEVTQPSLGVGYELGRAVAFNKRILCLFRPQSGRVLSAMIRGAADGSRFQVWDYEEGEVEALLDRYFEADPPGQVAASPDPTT
Description: HIS6DNPH1 and HIS6DNPH1E105Q, cloned in pET28a were transformed into BL21 cells. Transformed cells were inoculated into 2 L of TB media supplemented with 50 μg/ml kanamycin and incubated 37° C. until an OD600=1.0. IPTG (0.5 mM) was added and incubation continued for 4 hours. Cells were harvested by centrifugation and resuspended in lysis buffer (50 mM HEPES pH 7.5, 300 mM NaCl, 5% glycerol, 0.5 mM TCEP) supplemented with protease inhibitors (Complete EDTA-free tablets, Roche). Cells were lysed by passage through an Emulsiflex C5 (Avestin) at […], and the chromatin sheared by sonication at 50% maximum amplitude for 2×30 sec. Soluble proteins were isolated by ultracentrifugation (Beckman Type JLA25.50 rotor) at 60,000×g for 60 min (4° C.). Soluble extract was supplemented with 30 mM imidazole and incubated with 2 ml Ni-NTA beads (GE Healthcare) for 1 hour (4° C.). The beads were washed (50 mM HEPES pH 7.5, 300 mM NaCl, 30 mM imidazole, 5% glycerol, 0.5 mM TCEP) and protein eluted (50 mM HEPES pH7.5, 300 mM NaCl, 200 mM imidazole, 5% glycerol, 0.5 mM TCEP). The eluates were pooled, diluted dropwise to 100 mM NaCl (50 mM HEPES pH 7.5, 5% glycerol, 0.5 mM DTT) and DNPH1 further purified using a 5 ml HiTRAP QHP column (GE Healthcare), followed by a Superdex 200 Increase 10/300 column (GE Healthcare). Peak fractions were separated by SDS-PAGE and visualized with Instant Blue (Gentaur). Peak fractions were frozen in aliquots and stored at −80° C.
DNPH1 (4 μM) was incubated with nucleoside monophosphates (1 mM) in 20 mM sodium phosphate, pH 7.0, 150 mM NaCl, 2 mM MgCl2. After 45 min at room temperature the reaction was quenched by addition of 0.7% perchloric acid followed by immediate neutralization with addition of sodium acetate to 200 mM. Samples were diluted 1:10 into RP-Buffer (100 mM K2HPO4/KH2PO4, pH 6.5, 10 mM tetrabutylammonium bromide, 7% acetonitrile) and the nucleotides and reaction products separated from precipitated protein by filtration through a 0.22 μm centrifugal filter (Durapore-PVDF, Millipore). Samples of each reaction (5 nmol) were applied to a Zorbax SB-C18 column (4.6×250 mm, 3.5 μm, 80A pore size, Agilent Technologies), maintained at 30° C. and mounted on a Jasco HPLC system controlled by Chromnav software (v1.19, Jasco). Nucleoside monophosphates and reaction products were separated under isocratic flow by application of RP-Buffer at 1 mL/min. Absorbance data from the column eluent was continuously monitored between 200-400 nm (2 nm interval) using an MD-2010 photodiode array detector (JASCO). […] Peak integration of the absorbance data recorded at 260 nm was used to quantify the amount of substrate and product. […] The rate was determined by linear regression of a plot of product against reaction time.

[1] = test system: eHAP MUS81−/−DNPH1−/− cells; assay: Cell viability assay (CellTiter-Glo), eHAP MUS81−/−DNPH1−/− cells; type: cell-based, human; settings: for sensitivity of MUS81/DNPH1 k/o cells to nucleoside treatment (cell viability): nucleoside 200 nM, vs MUS81 k/o; for sensitisation to PARP inhibitor by loss of DNPH1: vs MUS81 k/o cells, continuous treatment 6 days
Description: (§1) For analysis of cell viability following exposure to olaparib (Selleckchem), deoxyribonucleosides and DNPH1i (N6-benzyladenosine, Carbosynth), cells were seeded in 96-well plates at a density of 100-500 cells per well. Twenty-four hours post-seeding, drug treatments were initiated, and cells were continuously exposed until termination of the experiment. Cell viability was measured using CellTiter-Glo (Promega). The surviving fractions were measured, and drug sensitivity curves were plotted using GraphPad Prism. The following nucleosides were purchased from commercial sources: dU (2′-deoxyuridine), hdU (5-hydroxy-2′-deoxyuridine), hmdU (5-hydroxymethyl-2′-deoxyuridine), mdC (5-methyl-2′-deoxycytidine), hmdC (5-hydroxymethyl-2′-deoxycytidine), cadC (5-carboxy-2-deoxycytidine), fodC (5-formyl-2-deoxycytidine), dl (2′-deoxyinosine), dX (2′-deoxyxanthosine), 8odG (8-oxo-2′-deoxyguanosine), hmU (5 hydroxymethyluridine), hmC (5-hydroxymethyl-cytidine). fodU (5-formyl-2′-deoxyuridine) was synthesized as previously described (Guo et al Org. Biomol. Chem. 11, 1610-1613 (2013).

DCTD k/o cell lines = assay: Cell viability, DCTD k/o cell lines; type: cell-based
Description: as §1

[2] = test system: eHAP WT and MUS81−/− isogenic cells; assay: LD80 dose used in genome-wide CRISPR-Cas9 screen; type: cell-based, human; settings: 10 days
Description: eHAP WT and MUS81−/− isogenic cells were transduced with a genome-wide lentiviral lentiCRISPRv2 sgRNA library (Doench et al 2016, PMID: 26780180) using multiplicity of infection (MOI) of ˜0.5 with a complexity of 400 cells/sgRNA. Transduced cells were selected with puromycin (0.4 mg/ml), expanded for 7 days, and sub-cultured in the presence or absence of an LD80 dose of olaparib (200 nM) or hmdC (1000 nM) for 10 days. Surviving cells were collected and genomic DNA was extracted using DNeasy Blood & Tissue Kit (Qiagen) supplemented with RNAse (Qiagen) according to the manufacturer's instructions. The CRISPR screens were carried out in biological triplicates. Libraries for Illumina sequencing were generated by two-step PCR amplification. In the first PCR, the sgRNA library was amplified and adaptors were added using nesting primers and the second PCR added barcodes, stagger regions, flow cell attachment and Illumina sequencing primers.
MUS81 k/o cells were transduced with the lentiviral-based Brunello genome-wide gRNA library (J. G. Doench et al Nat. Biotechnol. 34, 184-191 (2016)), followed by treatment with olaparib for 10 days. […] Bioinformatic analysis of the gRNA reads using the MAGeCK algorithm identified several novel, as well as previously reported, factors determining PARPi efficacy (FIG. 1).

eHAP MUS81−/− cells = assay: Cell viability assay (CellTiter-Glo), eHAP MUS81−/− cells; type: cell-based, human; settings: for effect on viability, agent alone: single agent
Description: as §1

[3] = test system: SUM149 BRCA1mut (parental) cells; assay: Cell viability assay, SUM149 BRCA1mut (parental) cells; type: cell-based, human; settings: olaparib 250 nM or hmdU 2 μM, 8 days
Description: as §1

DLD1 BRCA2−/− cells = assay: Cell viability assay, DLD1 BRCA2−/− cells; type: cell-based; settings: olaparib 10 nM or hmdU 2 μM, 10 days
Description: as §1

Row | SMILES | DNPH1 activity towards nucleoside monophosphate substrates (recombinant human DNPH1) | effect on viability, agent alone (eHAP MUS81−/− cells) | sensitisation to PARP inhibitor by loss of DNPH1 [1] | other results
1 | O=c1ccn([C@H]2C[C@H](O)[C@@H](COP(=O)(O)O)O2)c(=O)[nH]1 [dUMP] | Little or no activity |  |  | 
2 | O=Cc1cn([C@H]2C[C@H](O)[C@@H](CO)O2)c(=O)[nH]c1=O [fodU, 5-formyl-2′-deoxyuridine] |  |  |  | sensitivity of MUS81/DNPH1 k/o cells to nucleoside treatment (cell viability) ([1]; 6 days): to a lesser extent
3 | Nc1nc(=O)n([C@H]2C[C@H](O)[C@@H](CO)O2)cc1CO [hmdC, 5-hydroxymethyl-2′-deoxycytidine] |  |  |  | sensitivity of MUS81/DNPH1 k/o cells to nucleoside treatment (cell viability) ([1]; 6 days): to a lesser extent; resistance of DCTD k/o cells to nucleoside treatment (DCTD k/o cell lines): completely resistant; LD80 dose [2]: 1000 nM
4 | Cn1ncnc1[C@H]1c2n[nH]c(=O)c3cc(F)cc(c23)N[C@@H]1c1ccc(F)cc1 [talazoparib, (8S,9R)-5-Fluoro-8-(4-fluorophenyl)-9-(1-methyl-1H-1,2,4-triazol-5-yl)-2,7,8,9-tetrahydro-3H-pyrido[4,3,2-de]phthalazin-3-one] |  | limited effect on viability | sensitised | 
5 | OC[C@H]1O[C@@H](n2cnc3c(NCc4ccccc4)ncnc32)[C@H](O)[C@@H]1O [DNPH1i, N6-benzyladenosine] |  | no effect on viability |  | effect of DNPH1i on viability (specificity control) (eHAP MUS81−/− cells; with hmdU, 6 days, cells with DNPH1 (text: wild-type)): dose-dependent decrease in viability; effect of DNPH1i on viability (specificity control) ([1]; with hmdU, 6 days, DNPH1 k/o cells): only a marginal effect
6 | C[C@]1(c2nc3c(C(N)=O)cccc3[nH]2)CCCN1 [veliparib, 2-[(2R)-2-Methyl-2-pyrrolidinyl]-1H-benzimidazole-4-carboxamide] |  | limited effect on viability | sensitised | 
7 | O=c1ccn([C@@H]2O[C@H](COP(=O)(O)O)[C@@H](O)[C@H]2O)c(=O)[nH]1 [UMP] | Little or no activity |  |  | 
8 | O=C(c1cc(Cc2n[nH]c(=O)c3ccccc23)ccc1F)N1CCN(C(=O)C2CC2)CC1 [olaparib, 1-(Cyclopropylcarbonyl)-4-[5-[(3,4-dihydro-4-oxo-1-phthalazinyl)methyl]-2-fluorobenzoyl]piperazine] |  | limited effect on viability | sensitized | effect on viability, agent alone [3]: limited effect on viability; effect on viability, agent alone (DLD1 BRCA2−/− cells): limited effect on viability; LD80 dose [2]: 200 nM
9 | O=c1[nH]c(=O)n([C@H]2C[C@H](O)C(COP(=O)(O)O)O2)cc1CO (some centres unmarked) [hmdUMP] | efficiently hydrolyzed |  |  | reaction rate of hmdUMP hydrolysis by DNPH1 (recombinant human DNPH1; DNPH1 (2 μM), samples quenched at intervals up to 20 minutes, linear regression): 14.6 ± 0.4 µM/min
